Experimental findings from PubChem BioAssay AID248 (DTP/NCI, 2004) are described below.

The subject of the test is L1210 leukemia ip in BDF1 mice, survival T/C. The test is described as follows: NCI In Vivo Anticancer Drug Screen. Data for tumor model L1210 Leukemia (intraperitoneal) in B6D2F1 (BDF1) mice. The settings on record: endpoint: mean survival time, higher = longer survival. The procedure, abridged:
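Each compound was tested against a transplantable tumor grown in mice. The endpoint was survival, with treated animals benchmarked against vehicle controls as a simple ratio.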

[1] abbreviates: dose: 5.0 mg/kg/injection, schedule: Q01DX001 (ip), vehicle: saline.
[2] abbreviates: dose: 10.0 mg/kg/injection, schedule: Q01DX001 (ip), vehicle: saline.
Where [3] appears, read: dose: 20.0 mg/kg/injection, schedule: Q01DX001 (ip), vehicle: saline.
Where [4] appears, read: dose: 50.0 mg/kg/injection, schedule: Q01DX009 (ip), vehicle: saline.
Setting [5] is: dose: 75.0 mg/kg/injection, schedule: Q01DX001 (ip), vehicle: saline.
[6] abbreviates: dose: 50.0 mg/kg/injection, schedule: Q01DX001 (ip), vehicle: saline.
Where [7] appears, read: dose: 100.0 mg/kg/injection, schedule: Q01DX009 (ip), vehicle: saline.
The mark [8] stands for this setting: dose: 100.0 mg/kg/injection, schedule: Q04DX003 (ip), vehicle: saline.
Setting [9] is: dose: 200.0 mg/kg/injection, schedule: Q01DX009 (ip), vehicle: saline.
The mark [10] stands for this setting: dose: 200.0 mg/kg/injection, schedule: Q04DX003 (ip), vehicle: saline.
Setting [11] is: dose: 400.0 mg/kg/injection, schedule: Q04DX003 (ip), vehicle: saline.
Where [12] appears, read: dose: 50.0 mg/kg/injection, schedule: Q01DX001 (ip), vehicle: carboxymethylcellulose (CMC).
[13] abbreviates: dose: 100.0 mg/kg/injection, schedule: Q01DX001 (ip), vehicle: carboxymethylcellulose (CMC).
[14] abbreviates: dose: 200.0 mg/kg/injection, schedule: Q01DX001 (ip), vehicle: carboxymethylcellulose (CMC).
Where [15] appears, read: dose: 400.0 mg/kg/injection, schedule: Q01DX001 (ip), vehicle: carboxymethylcellulose (CMC).

Several values for one entry are separate records, joined by “and”; a condition that tells them apart may be missing. Equal values may be shown once. Inconclusive results and toxic doses are left out.

With `CC(=O)NC1=C(N2CC2C)C(=O)C(NC(C)=O)=C(N2CC2C)C1=O` (configuration not stated), the T/C (dose: 0.25 mg/kg/injection, schedule: Q01DX009 (ip), vehicle: saline) was 109 % of control; the T/C (dose: 0.31 mg/kg/injection, schedule: Q01DX Z (ip), vehicle: saline) was 103 % of control; the T/C (dose: 0.5 mg/kg/injection, schedule: Q01DX009 (ip), vehicle: saline) is 103 % of control; the T/C (dose: 0.63 mg/kg/injection, schedule: Q01DX Z (ip), vehicle: saline) is 103 % of control; the T/C (dose: 1.0 mg/kg/injection, schedule: Q01DX009 (ip), vehicle: saline) is 114 % of control; the T/C (dose: 1.25 mg/kg/injection, schedule: Q01DX Z (ip), vehicle: saline) is 106 % of control. Moreover, the T/C (dose: 2.0 mg/kg/injection, schedule: Q01DX009 (ip), vehicle: saline) was 120 % of control; the T/C (dose: 2.5 mg/kg/injection, schedule: Q01DX009 (ip), vehicle: saline) was 184 % of control; the T/C under setting [1] was 118 % of control; the T/C (dose: 5.0 mg/kg/injection, schedule: Q01DX009 (ip), vehicle: saline) was 108 % of control; the T/C under setting [2] is 171 % of control; the T/C (dose: 10.0 mg/kg/injection, schedule: Q01DX Z (ip), vehicle: saline) was 96 % of control and 111 % of control. For the same molecule, the T/C reads like this: under setting [3], 118 % of control; (dose: 20.0 mg/kg/injection, schedule: Q01DX009 (ip), vehicle: saline) 111 % of control; (dose: 20.0 mg/kg/injection, schedule: Q01DX Z (ip), vehicle: saline) 103 % of control; (dose: 40.0 mg/kg/injection, schedule: Q01DX Z (ip), vehicle: saline) 178 % of control; under setting [4], 100 % of control; under setting [5], 186 % of control. The T/C runs as follows: (dose: 75.0 mg/kg/injection, schedule: Q01DX009 (ip), vehicle: saline) 92 % of control; (dose: 150.0 mg/kg/injection, schedule: Q01DX001 (ip), vehicle: saline) 112 % of control.
For `COc1cc(O)c2ncccc2c1O`, the T/C runs as follows: under setting [1], 95 % of control; under setting [2], 101 % of control; under setting [3], 106 % of control; (dose: 35.0 mg/kg/injection, schedule: Q01DX001 (ip), vehicle: saline) 86 % of control and 91 % of control; (dose: 40.0 mg/kg/injection, schedule: Q01DX001 (ip), vehicle: saline) 103 % of control; under setting [6], 93 % of control and 89 % of control.
With `C[N+](C)(C)CCN=C(N)N[N+](=O)[O-]`, the T/C by setting is: under setting [7], 97 % of control; under setting [8], 97 % of control; under setting [9], 99 % of control; under setting [10], 98 % of control; under setting [11], 98 % of control.
With `O=[N+]([O-])c1ccc(O)c(/C=N/Nc2nnc(N/N=C/c3cc([N+](=O)[O-])ccc3O)c3ccccc23)c1`, the T/C under setting [12] was 95 % of control, the T/C under setting [13] is 93 % of control, the T/C under setting [14] is 95 % of control and the T/C under setting [15] is 93 % of control.
For `CC1(C)OC2COC(CN(N=O)C(N)=O)C2O1` (configuration not stated), the T/C under setting [5] was 122 % of control.
For `O=C1OCC2(CO)SC(c3ccccc3)NC12` (configuration not stated), the T/C under setting [8] was 98 % of control, the T/C under setting [10] is 92 % of control and the T/C under setting [11] is 98 % of control.
Consider `CC(C)=CCC/C(C)=C/C(=O)O`, for which the T/C is, setting by setting: (dose: 100.0 mg/kg/injection, schedule: Q01DX001 (ip), vehicle: saline) 100 % of control; (dose: 200.0 mg/kg/injection, schedule: Q01DX001 (ip), vehicle: saline) 93 % of control; (dose: 400.0 mg/kg/injection, schedule: Q01DX001 (ip), vehicle: saline) 93 % of control.
With `Cc1ccccc1C(C)(O)c1cnc(C)n1Cc1ccccc1` (configuration not stated), the T/C reads like this: (dose: 100.0 mg/kg/injection, schedule: Q01DX009 (ip), vehicle: saline with Tween-80) 94 % of control and 98 % of control; (dose: 100.0 mg/kg/injection, schedule: Q04DX002 (ip), vehicle: saline with Tween-80) 97 % of control and 103 % of control; (dose: 200.0 mg/kg/injection, schedule: Q01DX009 (ip), vehicle: saline with Tween-80) 95 % of control and 103 % of control; (dose: 200.0 mg/kg/injection, schedule: Q04DX002 (ip), vehicle: saline with Tween-80) 97 % of control and 100 % of control; (dose: 400.0 mg/kg/injection, schedule: Q01DX009 (ip), vehicle: saline with Tween-80) 98 % of control and 100 % of control; (dose: 400.0 mg/kg/injection, schedule: Q04DX002 (ip), vehicle: saline with Tween-80) 95 % of control and 101 % of control.
Consider `CC(O)(c1ccc(Cl)cc1)C(c1ccccc1)c1ccccn1` (configuration not stated), for which the T/C was 103 % of control (dose: 50.0 mg/kg/injection, schedule: Q01DX009 (ip), vehicle: water); 95 % of control (dose: 100.0 mg/kg/injection, schedule: Q01DX009 (ip), vehicle: water); 116 % of control (dose: 100.0 mg/kg/injection, schedule: Q04DX003 (ip), vehicle: water); 96 % of control (dose: 200.0 mg/kg/injection, schedule: Q01DX009 (ip), vehicle: water); 119 % of control (dose: 200.0 mg/kg/injection, schedule: Q04DX003 (ip), vehicle: water); 97 % of control (dose: 400.0 mg/kg/injection, schedule: Q01DX009 (ip), vehicle: water). Moreover, the T/C (dose: 400.0 mg/kg/injection, schedule: Q04DX003 (ip), vehicle: water) is 104 % of control.
In the case of `CN(C)C(=O)Nc1ccncc1`, the T/C is 97 % of control (dose: 25.0 mg/kg/injection, schedule: Q01DX001 (ip), vehicle: saline); 98 % of control and 91 % of control (dose: 25.0 mg/kg/injection, schedule: Q01DX009 (ip), vehicle: saline); 93 % of control and 97 % of control (dose: 25.0 mg/kg/injection, schedule: Q04DX002 (ip), vehicle: saline with Tween-80); 103 % of control (dose: 25.0 mg/kg/injection, schedule: Q04DX003 (ip), vehicle: saline); 95 % of control under setting [6]; 97 % of control and 88 % of control under setting [4]. Besides, the T/C is, setting by setting: (dose: 50.0 mg/kg/injection, schedule: Q04DX002 (ip), vehicle: saline with Tween-80) 98 % of control and 105 % of control; (dose: 50.0 mg/kg/injection, schedule: Q04DX003 (ip), vehicle: saline) 101 % of control.
Turning to `C[C@H]1C[C@H]2[C@@H]3CC[C@](O)(C(=O)CF)[C@@]3(C)C[C@H](O)[C@]2(F)[C@@]2(C)C=CC(=O)C=C12`, the T/C by setting is: under setting [12], 105 % of control; under setting [13], 113 % of control; under setting [14], 113 % of control; under setting [15], 113 % of control.
For `COc1cc2c(cc1OC)C(C(N)=O)NCC2` (configuration not stated), the T/C was 101 % of control (dose: 100.0 mg/kg/injection, schedule: Q01DX001 (ip), vehicle: other); 97 % of control (dose: 200.0 mg/kg/injection, schedule: Q01DX001 (ip), vehicle: other); 93 % of control (dose: 400.0 mg/kg/injection, schedule: Q01DX001 (ip), vehicle: other).
For `CC(C)/C(=N\[N+](C)(C)C)c1ccccc1`, the T/C is, setting by setting: (dose: 18.8 mg/kg/injection, schedule: Q04DX003 (ip), vehicle: saline) 97 % of control; (dose: 37.5 mg/kg/injection, schedule: Q04DX003 (ip), vehicle: saline) 100 % of control; under setting [5], 103 % of control; (dose: 75.0 mg/kg/injection, schedule: Q04DX003 (ip), vehicle: saline) 100 % of control.
Consider `OCC/C=C/CCCO`, for which the T/C reads like this: under setting [7], 97 % of control; under setting [9], 96 % of control; (dose: 400.0 mg/kg/injection, schedule: Q01DX009 (ip), vehicle: saline) 94 % of control.
For `NC(=S)N/N=C/c1ccc(Br)cn1`, the T/C (dose: 6.25 mg/kg/injection, schedule: Q01DX009 (ip), vehicle: saline with Tween-80) was 117 % of control and the T/C (dose: 12.5 mg/kg/injection, schedule: Q01DX009 (ip), vehicle: saline with Tween-80) is 113 % of control.
Take `COc1ccc(CCOC(C)=O)cc1`: the T/C is 97 % of control (dose: 100.0 mg/kg/injection, schedule: Q04DX002 (ip), vehicle: saline); 102 % of control (dose: 200.0 mg/kg/injection, schedule: Q04DX002 (ip), vehicle: saline); 102 % of control (dose: 400.0 mg/kg/injection, schedule: Q04DX002 (ip), vehicle: saline).
